Patent US20240132431A1, “METHOD FOR ALKYLATING ACIDIC FUNCTIONAL GROUP” (Chugai Seiyaku Kabushiki Kaisha, priority 2021, published 2024)

Target: T1, Bcl-2 protein (Recombinant Human Bcl-2 Protein) (Homo sapiens, UniProt P10415)
T1 construct: purchased Novus NBP2-34889
Assay: Binding evaluation of mixture library compounds to Bcl-2 using AS-MS (affinity selection mass spectrometry)
Conditions: for ASMS ratio (%) n = 1 / ASMS ratio (%) n = 2: ASMS Ratio(%)=(A−C)/B×100; for ASMS ratio (%) n = 1: replicate n = 1; for ASMS ratio (%) n = 2: replicate n = 2
In short: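 Bcl-2 binding is scored from LC/MS signal retained with protein through gel-filtration spin columns, normalised to unfiltered and protein-free controls. Incubation: 20 μM protein, […] per compound, 1 h, 23° C.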

[1] = AS-MS on the mixture of 1200 library compounds
[2] = AS-MS, mixture of 1200 compounds, Bcl-2

T1 sequence (P10415 whole entry): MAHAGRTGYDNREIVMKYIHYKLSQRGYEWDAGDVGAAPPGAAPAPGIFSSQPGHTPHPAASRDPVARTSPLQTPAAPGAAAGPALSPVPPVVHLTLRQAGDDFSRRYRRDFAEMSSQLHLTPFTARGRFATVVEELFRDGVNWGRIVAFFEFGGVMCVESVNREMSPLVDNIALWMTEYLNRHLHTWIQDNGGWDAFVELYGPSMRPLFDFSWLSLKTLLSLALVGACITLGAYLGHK

CCOc1cccc(-c2ccc(CN3CCN(c4ccc(C(=O)Nc5ccc(OC)cc5)cc4)CC3)c3ccccc23)c1 [B1O065-01, 4-[4-[[4-(3-Ethoxyphenyl)naphthalen-1-yl]methyl]piperazin-1-yl]-N-(4-methoxyphenyl)benzamide]
ASMS ratio (%) n = 1 [1]: 7.5% | ASMS ratio (%) n = 2 [1]: 0.8%

CCOc1cccc(-c2cc(OC)c(CN3CCN(c4ccc(C(=O)N(C)CC56CC7CC(CC(C7)C5)C6)cc4)CC3)c(OC)c2)c1 [B3A059-01, N-(1-Adamantylmethyl)-4-[4-[[4-(3-ethoxyphenyl)-2,6-dimethoxyphenyl]methyl]piperazin-1-yl]-N-methylbenzamide]
ASMS ratio (%) n = 1 [1]: −1.9% | ASMS ratio (%) n = 2 [1]: −8.0%

CCOc1cccc(-c2ccccc2CN2CCN(c3ccc(C(=O)NS(=O)(=O)CCC(F)(F)F)cc3)CC2)c1 [B2N045-01, 4-[4-[[2-(3-Ethoxyphenyl)phenyl]methyl]piperazin-1-yl]-N-(3,3,3-trifluoropropylsulfonyl)benzamide]
ASMS ratio (%) (n = 1): 0.0% | ASMS ratio (%) (n = 2): 0.1%

CCOc1cncc(-c2cc(C(=O)N3CCN(c4ccc(C(=O)N(C)CC56CC7CC(CC(C7)C5)C6)nn4)CC3)cc(C(F)(F)F)c2)c1 [B3A018-01, N-(1-Adamantylmethyl)-6-[4-[3-(5-ethoxypyridin-3-yl)-5-(trifluoromethyl)benzoyl]piperazin-1-yl]-N-methylpyridazine-3-carboxamide]
ASMS ratio (%) n = 1 [1]: 5.0% | ASMS ratio (%) n = 2 [1]: 1.8%

CCOc1cccc(C#Cc2ccccc2C(=O)N2CCN(c3ccc(C(=O)N(C)CC45CC6CC(CC(C6)C4)C5)cc3)CC2)c1 [B3A029-01, N-(1-Adamantylmethyl)-4-[4-[2-[2-(3-ethoxyphenyl)ethynyl]benzoyl]piperazin-1-yl]-N-methylbenzamide]
ASMS ratio (%) n = 1 [1]: 0.0% | ASMS ratio (%) n = 2 [1]: 0.0%

CCOc1cccc(C#Cc2ccccc2CN2CCN(c3ccc(C(=O)NS(=O)(=O)C(C)(C)C)nn3)CC2)c1 [B2L095-01, N-tert-Butylsulfonyl-6-[4-[[2-[2-(3-ethoxyphenyl)ethynyl]phenyl]methyl]piperazin-1-yl]pyridazine-3-carboxamide]
ASMS ratio (%) (n = 1): 0.0% | ASMS ratio (%) (n = 2): 0.0%

CCOc1cncc(-c2ccc(CN3CCN(c4ccc(C(=O)NCC56CC7CC(CC(C7)C5)C6)cc4)CC3)c(CC)c2)c1 [B1A050-01, N-(1-Adamantylmethyl)-4-[4-[[4-(5-ethoxypyridin-3-yl)-2-ethylphenyl]methyl]piperazin-1-yl]benzamide]
ASMS ratio (%) n = 1 [2]: 0.6% | ASMS ratio (%) n = 2 [2]: 3.0%

6-[4-[4-(5-Ethoxypyridin-3-yl)-3-fluorobenzoyl]piperazin-1-yl]-N-propylpyridazine-3-carboxamide [B1M088-01]
ASMS ratio (%) n = 1 [1]: 0.0% | ASMS ratio (%) n = 2 [1]: 0.0%

CCOc1cncc(-c2cc(CN3CCN(c4ccc(C(=O)N(CC)CC)nn4)CC3)cc(OCC)c2)c1 [B4J082-01, 6-[4-[[3-Ethoxy-5-(5-ethoxypyridin-3-yl)phenyl]methyl]piperazin-1-yl]-N,N-diethylpyridazine-3-carboxamide]
ASMS ratio (%) n = 1 (AS-MS, mixture library, Bcl-2): 0.0% | ASMS ratio (%) n = 2 (AS-MS, mixture library, Bcl-2): 0.0%

CCOc1cccc(-c2ccc(C(C)N3CCN(c4ccc(C(=O)NS(=O)(=O)CCC(F)(F)F)cc4)CC3)cc2)c1 (stereo not drawn) [B2N097-01, 4-[4-[1-[4-(3-Ethoxyphenyl)phenyl]ethyl]piperazin-1-yl]-N-(3,3,3-trifluoropropylsulfonyl)benzamide]
ASMS ratio (%) (n = 1): 0.0% | ASMS ratio (%) (n = 2): 0.0%

CCOc1cncc(-c2cc(CN3CCN(c4ccc(C(=O)NS(=O)(=O)C(C)(C)C)nn4)CC3)cc(OCC)c2)c1 [B2L082-01, N-tert-Butylsulfonyl-6-[4-[[3-ethoxy-5-(5-ethoxypyridin-3-yl)phenyl]methyl]piperazin-1-yl]pyridazine-3-carboxamide]
ASMS ratio (%) (n = 1): 2.6% | ASMS ratio (%) (n = 2): −1.2%

6-[4-[3-tert-Butyl-5-(5-ethoxypyridin-3-yl)benzoyl]piperazin-1-yl]-N-propylpyridazine-3-carboxamide [B1M061-01]
ASMS ratio (%) n = 1 [2]: −3.3% | ASMS ratio (%) n = 2 [2]: −13.1%

CCOc1cccc(-c2ccc(CN3CCN(c4ccc(C(=O)NS(=O)(=O)C(C)(C)C)cc4)CC3)cc2C)c1 [B2L047-01, N-tert-Butylsulfonyl-4-[4-[[4-(3-ethoxyphenyl)-3-methylphenyl]methyl]piperazin-1-yl]benzamide]
ASMS ratio (%) (n = 1): 0.0% | ASMS ratio (%) (n = 2): 0.0%

CCOc1cncc(-c2ccc(C(=O)N3CCN(c4ccc(C(=O)NS(=O)(=O)C(C)(C)C)nn4)CC3)cc2F)c1 [B2L006-01, N-tert-Butylsulfonyl-6-[4-[4-(5-ethoxypyridin-3-yl)-3-fluorobenzoyl]piperazin-1-yl]pyridazine-3-carboxamide]
ASMS ratio (%) (n = 1): 0.0% | ASMS ratio (%) (n = 2): 0.0%

CCOc1cncc(-c2cc(C(=O)N3CCN(c4ccc(C(=O)NS(C)(=O)=O)cc4)CC3)cc(C(C)(C)C)c2)c1 [B2I038-01, 4-[4-[3-tert-Butyl-5-(5-ethoxypyridin-3-yl)benzoyl]piperazin-1-yl]-N-methylsulfonylbenzamide]
ASMS ratio (%) n = 1 (AS-MS, mixture library, Bcl-2): 0.0% | ASMS ratio (%) n = 2 (AS-MS, mixture library, Bcl-2): 0.0%

CCOc1cncc(-c2cc(OC)c(CN3CCN(c4ccc(C(=O)NCC56CC7CC(CC(C7)C5)C6)nn4)CC3)c(OC)c2)c1 [B1A086-01, N-(1-Adamantylmethyl)-6-[4-[[4-(5-ethoxypyridin-3-yl)-2,6-dimethoxyphenyl]methyl]piperazin-1-yl]pyridazine-3-carboxamide]
ASMS ratio (%) n = 1 [2]: 0.0% | ASMS ratio (%) n = 2 [2]: −14.8%

CCOc1cccc(-c2ccccc2CCC(=O)N2CCN(c3ccc(C(=O)NS(=O)(=O)c4ccc(NCCSc5ccccc5)c([N+](=O)[O-])c4)nn3)CC2)c1 [B2Q011-01, 6-[4-[3-[2-(3-Ethoxyphenyl)phenyl]propanoyl]piperazin-1-yl]-N-[3-nitro-4-(2-phenylsulfanylethylamino)phenyl]sulfonylpyridazine-3-carboxamide]
ASMS ratio (%) n = 1 (AS-MS, mixture library, Bcl-2): 25.0% | ASMS ratio (%) n = 2 (AS-MS, mixture library, Bcl-2): −1.1%

CCOc1cncc(-c2csc(C(=O)N3CCN(c4ccc(C(=O)Nc5ccc(OC)cc5)nn4)CC3)c2)c1 [B1O002-01, 6-[4-[4-(5-Ethoxypyridin-3-yl)thiophene-2-carbonyl]piperazin-1-yl]-N-(4-methoxyphenyl)pyridazine-3-carboxamide]
ASMS ratio (%) n = 1 [1]: 2.2% | ASMS ratio (%) n = 2 [1]: 2.6%

CCOc1cncc(-c2ccc(C(=O)N3CCN(c4ccc(C(=O)NS(=O)(=O)c5ccc(NCCSc6ccccc6)c(C(F)(F)F)c5)nn4)CC3)cc2C)c1 [B2R004-01, 6-[4-[4-(5-Ethoxypyridin-3-yl)-3-methylbenzoyl]piperazin-1-yl]-N-[4-(2-phenylsulfanylethylamino)-3-(trifluoromethyl)phenyl]sulfonylpyridazine-3-carboxamide]
ASMS ratio (%) (n = 1): 0.0% | ASMS ratio (%) (n = 2): 0.0%

CCOc1cncc(-c2ccc(CN3CCN(c4ccc(C(=O)NCC56CC7CC(CC(C7)C5)C6)nn4)CC3)c(OC)c2)c1 [B1A080-01, N-(1-Adamantylmethyl)-6-[4-[[4-(5-ethoxypyridin-3-yl)-2-methoxyphenyl]methyl]piperazin-1-yl]pyridazine-3-carboxamide]
ASMS ratio (%) n = 1 [2]: 3.4% | ASMS ratio (%) n = 2 [2]: 0.0%

CCOc1cncc(C#Cc2ccccc2C(=O)N2CCN(c3ccc(C(=O)Nc4ccc(OC)cc4)cc3)CC2)c1 [B1O030-01, 4-[4-[2-[2-(5-Ethoxypyridin-3-yl)ethynyl]benzoyl]piperazin-1-yl]-N-(4-methoxyphenyl)benzamide]
ASMS ratio (%) n = 1 [1]: 1.8% | ASMS ratio (%) n = 2 [1]: −2.0%

CCOc1cccc(-c2cc(CN3CCN(c4ccc(C(=O)NS(=O)(=O)CC56CC7CC(CC(C7)C5)C6)cc4)CC3)cc(OCC)c2)c1 [B2A055-01, N-(1-Adamantylmethylsulfonyl)-4-[4-[[3-ethoxy-5-(3-ethoxyphenyl)phenyl]methyl]piperazin-1-yl]benzamide]
ASMS ratio (%) n = 1 (AS-MS, mixture library, Bcl-2): 5.8% | ASMS ratio (%) n = 2 (AS-MS, mixture library, Bcl-2): −7.3%

CCOc1cccc(-c2cc(CN3CCN(c4ccc(C(=O)NS(=O)(=O)CC56CC7CC(CC(C7)C5)C6)cc4)CC3)cc(C(F)(F)F)c2)c1 [B2A061-01, N-(1-Adamantylmethylsulfonyl)-4-[4-[[3-(3-ethoxyphenyl)-5-(trifluoromethyl)phenyl]methyl]piperazin-1-yl]benzamide]
ASMS ratio (%) n = 1 (AS-MS, mixture library, Bcl-2): 1.7% | ASMS ratio (%) n = 2 (AS-MS, mixture library, Bcl-2): −5.6%

CCOc1cccc(-c2ccccc2CCC(=O)N2CCN(c3ccc(C(=O)N(C)CC45CC6CC(CC(C6)C4)C5)nn3)CC2)c1 [B3A011-01, N-(1-Adamantylmethyl)-6-[4-[3-[2-(3-ethoxyphenyl)phenyl]propanoyl]piperazin-1-yl]-N-methylpyridazine-3-carboxamide]
ASMS ratio (%) n = 1 [1]: 4.5% | ASMS ratio (%) n = 2 [1]: 2.0%
